Laboratory results published in PMC4147775, “Stimulation of Hepatic Apolipoprotein A-I Production by Novel Thieno-Triazolodiazepines: Roles of the Classical Benzodiazepine Receptor, PAF Receptor, and Bromodomain Binding” (Lipid insights, 2013).
Read-outs that look alike come from different tables or passages of the source.

Legend:
BRD2(1) = molecular target: T1, BRD2(1) (Homo sapiens, UniProt P25440); assay: Protein stability shift assay (thermal shift), BRD2(1); assay type: binding; conditions: 10 μM ligand
T1 construct: the second as compared with the first bromodomain of these BRDs

BRD2(2) = molecular target: T2, BRD2(2) (Homo sapiens, UniProt P25440); assay: Protein stability shift assay (thermal shift), BRD2(2); assay type: binding; conditions: 10 μM ligand
T2 construct: the second as compared with the first bromodomain of these BRDs

BRD3(1) = molecular target: T3, BRD3(1) (Homo sapiens, UniProt Q15059); assay: Protein stability shift assay (thermal shift), BRD3(1); assay type: binding; conditions: 10 μM ligand
T3 construct: the second as compared with the first bromodomain of these BRDs

BRD4(2) = molecular target: T4, BRD4(2) (Homo sapiens, UniProt O60885); assay: Protein stability shift assay (thermal shift), BRD4(2); assay type: binding; conditions: 10 μM ligand
T4 construct: the second as compared with the first bromodomain of these BRDs

BRDT(1) = molecular target: T5, BRDT(1) (Homo sapiens, UniProt Q58F21); assay: Protein stability shift assay (thermal shift), BRDT(1); assay type: binding; conditions: 10 μM ligand
T5 construct: the second as compared with the first bromodomain of these BRDs

BRDT(2) = molecular target: T6, BRDT(2) (Homo sapiens, UniProt Q58F21); assay: Protein stability shift assay (thermal shift), BRDT(2); assay type: binding; conditions: 10 μM ligand
T6 construct: the second as compared with the first bromodomain of these BRDs

BAZ2B = molecular target: T7, BAZ2B (Homo sapiens, UniProt Q9UIF8); assay: Protein stability shift assay (thermal shift), BAZ2B; assay type: binding; conditions: 10 μM ligand
T7 construct: Thermal shift (Δtm^obs) of human bromodomains in the presence of 10 μM compound
T7 sequence (Q9UIF8 2060-2164 limits assumed): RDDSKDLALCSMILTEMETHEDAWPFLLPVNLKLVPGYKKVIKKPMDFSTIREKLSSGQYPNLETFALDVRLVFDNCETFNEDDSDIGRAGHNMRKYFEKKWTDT

CREBBP = molecular target: T8, CREBBP (Homo sapiens, UniProt Q92793); assay: Protein stability shift assay (thermal shift), CREBBP; assay type: binding; conditions: 10 μM ligand
T8 construct: Thermal shift (Δtm^obs) of human bromodomains in the presence of 10 μM compound

PB1(5) = molecular target: T9, PB1(5) (Homo sapiens, UniProt Q86U86); assay: Protein stability shift assay (thermal shift), PB1(5); assay type: binding; conditions: 10 μM ligand
T9 construct: Thermal shift (Δtm^obs) of human bromodomains in the presence of 10 μM compound

PCAF = molecular target: T10, PCAF (Homo sapiens, UniProt Q92831); assay: Protein stability shift assay (thermal shift), PCAF; assay type: binding; conditions: 10 μM ligand
T10 construct: Thermal shift (Δtm^obs) of human bromodomains in the presence of 10 μM compound
T10 sequence (Q92831 723-827 limits assumed): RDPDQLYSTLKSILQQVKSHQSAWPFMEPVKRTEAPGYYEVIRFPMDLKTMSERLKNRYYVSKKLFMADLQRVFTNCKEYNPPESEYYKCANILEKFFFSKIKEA

[1] = tested on: apoA-I production by primary human hepatocytes; assay: apoA-I production by primary human hepatocytes (ELISA); assay type: cell-based; conditions: cultured human hepatocytes, highest concentration tested (100 μM)
[2] = tested on: apoA-I production by Hep-G2 cells; set-up: method as in PMID 20513599; conditions: HepG2 cells, 40 μM; cited from earlier work
[3] = some of the participants; cited from earlier work
[4] = tested on: fibrosarcoma cells (HT1080); assay: Cytotoxicity: mitochondrial membrane potential (TMRM)
BRD3(2) = BRD3(2) (Homo sapiens, UniProt Q15059); assay: Protein stability shift assay (thermal shift), BRD3(2); assay type: binding; set-up: the second as compared with the first bromodomain of these BRDs; conditions: 10 μM ligand
BRD4(1) = BRD4(1) (Homo sapiens, UniProt O60885); assay: Protein stability shift assay (thermal shift), BRD4(1); assay type: binding; set-up: the second as compared with the first bromodomain of these BRDs; conditions: 10 μM ligand

T1 sequence (P25440 74-180 limits assumed): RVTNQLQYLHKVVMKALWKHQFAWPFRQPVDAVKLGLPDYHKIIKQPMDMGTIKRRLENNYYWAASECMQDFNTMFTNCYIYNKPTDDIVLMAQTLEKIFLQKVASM
T9 sequence (Q86U86 653-763 limits assumed): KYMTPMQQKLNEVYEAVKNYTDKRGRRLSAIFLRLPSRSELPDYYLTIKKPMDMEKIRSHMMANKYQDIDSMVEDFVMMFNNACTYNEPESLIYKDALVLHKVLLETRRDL
Chain of BRD3(2) (Q15059 306-415 limits assumed): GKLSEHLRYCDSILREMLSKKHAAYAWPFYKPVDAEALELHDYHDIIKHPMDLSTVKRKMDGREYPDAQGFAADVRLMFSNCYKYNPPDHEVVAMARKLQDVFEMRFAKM
T3 sequence (Q15059 34-140 limits assumed): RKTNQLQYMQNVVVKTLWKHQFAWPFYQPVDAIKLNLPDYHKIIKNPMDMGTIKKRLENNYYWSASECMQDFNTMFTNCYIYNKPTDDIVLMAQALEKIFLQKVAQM
T2 sequence (P25440 344-453 limits assumed): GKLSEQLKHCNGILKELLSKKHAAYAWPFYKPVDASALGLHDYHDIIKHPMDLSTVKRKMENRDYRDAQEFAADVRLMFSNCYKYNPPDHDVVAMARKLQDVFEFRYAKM
T8 sequence (Q92793 1085-1192 limits assumed): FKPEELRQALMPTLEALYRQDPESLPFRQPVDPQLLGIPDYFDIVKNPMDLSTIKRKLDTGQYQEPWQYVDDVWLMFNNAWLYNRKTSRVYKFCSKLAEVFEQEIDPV

**Q.** With `COc1cc(OC)c2c(=O)[nH]c(-c3cc(C)c(OCCO)c(C)c3)nc2c1` [RVX-208, reference compound] as the compound, how does the “Thermal shift (ΔTm obs) BRD2(1)” value (BRD2(1)) read?
**A.** 0.9

**Q.** What about the “Thermal shift (ΔTm obs) BRD2(2)” value (BRD2(2)) of the same compound?
**A.** 4.0

**Q.** What about the “Thermal shift (ΔTm obs) BRD3(1)” value (BRD3(1)) of the same compound?
**A.** 0.8

**Q.** And the “Thermal shift (ΔTm obs) BRD4(2)” value (BRD4(2))?
**A.** 3.4

**Q.** And the “Thermal shift (ΔTm obs) BRDT(1)” value (BRDT(1))?
**A.** 0.6

**Q.** What about the “Thermal shift (ΔTm obs) BRDT(2)” value (BRDT(2)) of the same compound?
**A.** 4.0

**Q.** And the “Thermal shift (ΔTm obs) BAZ2B” value (BAZ2B)?
**A.** −0.2

**Q.** What about the “Thermal shift (ΔTm obs) CREBBP” value (CREBBP) of the same compound?
**A.** −0.2

**Q.** What about the “Thermal shift (ΔTm obs) PB1(5)” value (PB1(5)) of the same compound?
**A.** 0.0

**Q.** What about the “Thermal shift (ΔTm obs) PCAF” value (PCAF) of the same compound?
**A.** −0.4

**Q.** What about the “increase of apoA-I production” value [1] of the same compound?
**A.** up to 80%

**Q.** What about the “stimulation of apoA-I protein production” value [2] of the same compound?
**A.** 2 fold

**Q.** And the “liver safety in human study” value [3]?
**A.** signs of liver damage

**Q.** What about the IC50 ([4]; Homo sapiens, HT-1080, 72 h, read-out: mitochondrial membrane potential in fibrosarcoma cells, IC50, 72 hours) of the same compound?
**A.** 50 µM

**Q.** And the IC50 ([4]; read-out: mitochondrial membrane potential in fibrosarcoma cells, IC50, 72 hours)?
**A.** 49 µM

**Q.** And the “Thermal shift (ΔTm obs) BRD3(2)” value (BRD3(2))?
**A.** 4.0

**Q.** And the “Thermal shift (ΔTm obs) BRD4(1)” value (BRD4(1))?
**A.** 1.3
